# Results reported in the kinase profiling compilation of Christmann-Franck et al. (2016).
# Tests used:
# Experiment in all cases: radiometric filter-binding kinase assay
# LCK (mouse) = conditions: accession and sequence are those of the human protein
# IKBKB (human) = IKBKB (human) (UniProt O14920)
# MARK3 (human) = MARK3 (human) (UniProt P27448)
# RIPK2 (human) = RIPK2 (human) (UniProt O43353)
# EEF2K (human) = EEF2K (human) (UniProt O00418)
# AURKA (human) = AURKA (human) (UniProt O14965)
# EPHB1 (human) = EPHB1 (human) (UniProt P54762)
# DYRK2 (human) = DYRK2 (human) (UniProt Q92630)
# Sequence of DYRK2 (human) (Q92630 whole entry, looked up): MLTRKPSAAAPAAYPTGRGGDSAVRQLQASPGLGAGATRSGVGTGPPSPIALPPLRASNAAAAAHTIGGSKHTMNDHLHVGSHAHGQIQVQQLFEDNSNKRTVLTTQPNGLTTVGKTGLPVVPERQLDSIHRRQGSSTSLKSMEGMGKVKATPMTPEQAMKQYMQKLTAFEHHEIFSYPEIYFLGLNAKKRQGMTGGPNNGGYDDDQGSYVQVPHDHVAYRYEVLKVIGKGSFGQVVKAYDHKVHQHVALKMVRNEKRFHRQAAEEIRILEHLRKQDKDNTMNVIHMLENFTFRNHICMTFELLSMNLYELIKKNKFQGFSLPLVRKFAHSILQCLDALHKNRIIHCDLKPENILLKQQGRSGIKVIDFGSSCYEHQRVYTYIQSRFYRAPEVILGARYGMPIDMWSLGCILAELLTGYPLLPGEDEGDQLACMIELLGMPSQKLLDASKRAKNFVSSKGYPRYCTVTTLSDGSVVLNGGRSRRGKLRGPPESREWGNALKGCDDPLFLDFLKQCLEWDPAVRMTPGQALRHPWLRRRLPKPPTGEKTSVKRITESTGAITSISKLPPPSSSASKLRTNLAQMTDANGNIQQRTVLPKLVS
# SRC (human) = SRC (human) (UniProt P12931)
# SRPK1 (human) = SRPK1 (human) (UniProt Q96SB4)
# TTK (human) = TTK (human) (UniProt P33981)
# Sequence of TTK (human) (P33981 whole entry, looked up): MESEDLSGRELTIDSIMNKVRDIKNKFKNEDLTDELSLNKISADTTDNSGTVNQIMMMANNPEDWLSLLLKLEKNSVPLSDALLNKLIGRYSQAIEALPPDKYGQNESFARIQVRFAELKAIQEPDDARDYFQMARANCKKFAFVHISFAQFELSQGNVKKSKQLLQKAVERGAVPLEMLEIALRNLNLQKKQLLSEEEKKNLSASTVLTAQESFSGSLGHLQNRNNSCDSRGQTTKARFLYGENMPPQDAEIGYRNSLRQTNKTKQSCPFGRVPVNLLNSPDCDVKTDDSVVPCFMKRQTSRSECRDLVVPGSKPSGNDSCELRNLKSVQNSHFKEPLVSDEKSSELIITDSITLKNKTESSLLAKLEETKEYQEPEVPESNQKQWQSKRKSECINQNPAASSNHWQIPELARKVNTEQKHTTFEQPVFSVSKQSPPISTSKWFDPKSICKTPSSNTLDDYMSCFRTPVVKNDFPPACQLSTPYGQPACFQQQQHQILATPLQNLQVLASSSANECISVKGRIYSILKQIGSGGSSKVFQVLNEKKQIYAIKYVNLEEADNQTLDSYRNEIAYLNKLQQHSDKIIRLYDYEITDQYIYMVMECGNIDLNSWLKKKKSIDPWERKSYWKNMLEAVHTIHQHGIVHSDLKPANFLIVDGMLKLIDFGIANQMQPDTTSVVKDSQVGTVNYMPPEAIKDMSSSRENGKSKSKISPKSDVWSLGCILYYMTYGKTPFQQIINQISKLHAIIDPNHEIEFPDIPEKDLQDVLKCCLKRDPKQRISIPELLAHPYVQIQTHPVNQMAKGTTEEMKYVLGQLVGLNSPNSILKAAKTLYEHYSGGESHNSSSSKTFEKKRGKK
# ABL1 (human) = ABL1 (human) (UniProt P00519)
# Sequence of ABL1 (human) (P00519 whole entry, looked up): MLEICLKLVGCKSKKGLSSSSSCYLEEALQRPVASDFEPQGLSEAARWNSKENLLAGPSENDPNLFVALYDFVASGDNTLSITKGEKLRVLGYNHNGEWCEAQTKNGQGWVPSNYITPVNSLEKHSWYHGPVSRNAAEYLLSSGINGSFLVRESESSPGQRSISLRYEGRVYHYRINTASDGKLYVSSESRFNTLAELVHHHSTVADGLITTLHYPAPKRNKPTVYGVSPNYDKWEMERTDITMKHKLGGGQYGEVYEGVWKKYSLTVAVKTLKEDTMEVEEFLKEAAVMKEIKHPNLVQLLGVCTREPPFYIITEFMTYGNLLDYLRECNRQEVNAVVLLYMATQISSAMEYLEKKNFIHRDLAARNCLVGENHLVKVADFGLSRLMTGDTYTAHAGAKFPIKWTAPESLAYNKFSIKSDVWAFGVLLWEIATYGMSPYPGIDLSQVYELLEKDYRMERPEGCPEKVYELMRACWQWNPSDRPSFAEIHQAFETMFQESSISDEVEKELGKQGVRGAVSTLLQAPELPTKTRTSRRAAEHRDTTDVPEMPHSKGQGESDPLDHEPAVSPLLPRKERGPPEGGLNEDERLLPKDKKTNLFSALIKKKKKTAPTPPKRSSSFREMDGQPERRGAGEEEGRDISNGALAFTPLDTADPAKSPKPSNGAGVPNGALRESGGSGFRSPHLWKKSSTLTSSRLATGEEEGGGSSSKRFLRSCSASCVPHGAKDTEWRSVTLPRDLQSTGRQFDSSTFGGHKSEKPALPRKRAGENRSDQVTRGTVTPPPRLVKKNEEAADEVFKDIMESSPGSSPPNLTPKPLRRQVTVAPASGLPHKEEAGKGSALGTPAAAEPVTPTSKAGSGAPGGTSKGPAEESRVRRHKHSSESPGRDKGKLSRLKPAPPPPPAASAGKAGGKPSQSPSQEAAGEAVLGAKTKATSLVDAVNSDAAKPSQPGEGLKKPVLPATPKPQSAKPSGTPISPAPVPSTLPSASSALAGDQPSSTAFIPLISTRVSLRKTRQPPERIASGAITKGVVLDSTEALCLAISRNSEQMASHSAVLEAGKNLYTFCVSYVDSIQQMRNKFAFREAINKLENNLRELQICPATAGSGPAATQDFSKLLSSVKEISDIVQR
# CaMK1 (human) = CaMK1 (human) (UniProt Q14012)
# Sequence of CaMK1 (human) (Q14012 whole entry, looked up): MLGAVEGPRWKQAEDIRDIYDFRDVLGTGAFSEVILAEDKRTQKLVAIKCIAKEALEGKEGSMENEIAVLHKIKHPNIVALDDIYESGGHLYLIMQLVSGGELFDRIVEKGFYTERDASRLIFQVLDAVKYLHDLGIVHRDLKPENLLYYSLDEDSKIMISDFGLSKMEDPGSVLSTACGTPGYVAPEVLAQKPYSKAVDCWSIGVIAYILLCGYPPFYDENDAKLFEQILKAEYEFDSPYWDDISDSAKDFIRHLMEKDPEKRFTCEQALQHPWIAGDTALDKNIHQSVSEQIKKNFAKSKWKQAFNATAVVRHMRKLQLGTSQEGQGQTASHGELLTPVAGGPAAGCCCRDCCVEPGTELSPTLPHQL
# MARK2 (human) = MARK2 (human) (UniProt Q7KZI7)
# Sequence of RIPK2 (human) (O43353 whole entry, looked up): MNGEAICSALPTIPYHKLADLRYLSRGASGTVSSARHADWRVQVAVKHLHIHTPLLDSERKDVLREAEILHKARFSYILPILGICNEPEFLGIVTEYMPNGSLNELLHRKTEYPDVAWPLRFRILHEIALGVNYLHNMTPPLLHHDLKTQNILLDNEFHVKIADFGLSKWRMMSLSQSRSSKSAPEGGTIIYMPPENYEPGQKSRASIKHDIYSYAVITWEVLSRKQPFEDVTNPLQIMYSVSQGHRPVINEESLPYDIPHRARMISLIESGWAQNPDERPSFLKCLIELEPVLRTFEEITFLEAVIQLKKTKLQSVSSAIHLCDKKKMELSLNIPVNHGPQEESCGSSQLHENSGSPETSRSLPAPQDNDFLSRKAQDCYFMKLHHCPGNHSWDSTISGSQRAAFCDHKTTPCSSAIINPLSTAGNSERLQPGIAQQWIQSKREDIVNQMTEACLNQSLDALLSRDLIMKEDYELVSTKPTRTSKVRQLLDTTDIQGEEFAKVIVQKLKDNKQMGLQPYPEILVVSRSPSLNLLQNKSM
# Sequence of IKBKB (human) (O14920 whole entry, looked up): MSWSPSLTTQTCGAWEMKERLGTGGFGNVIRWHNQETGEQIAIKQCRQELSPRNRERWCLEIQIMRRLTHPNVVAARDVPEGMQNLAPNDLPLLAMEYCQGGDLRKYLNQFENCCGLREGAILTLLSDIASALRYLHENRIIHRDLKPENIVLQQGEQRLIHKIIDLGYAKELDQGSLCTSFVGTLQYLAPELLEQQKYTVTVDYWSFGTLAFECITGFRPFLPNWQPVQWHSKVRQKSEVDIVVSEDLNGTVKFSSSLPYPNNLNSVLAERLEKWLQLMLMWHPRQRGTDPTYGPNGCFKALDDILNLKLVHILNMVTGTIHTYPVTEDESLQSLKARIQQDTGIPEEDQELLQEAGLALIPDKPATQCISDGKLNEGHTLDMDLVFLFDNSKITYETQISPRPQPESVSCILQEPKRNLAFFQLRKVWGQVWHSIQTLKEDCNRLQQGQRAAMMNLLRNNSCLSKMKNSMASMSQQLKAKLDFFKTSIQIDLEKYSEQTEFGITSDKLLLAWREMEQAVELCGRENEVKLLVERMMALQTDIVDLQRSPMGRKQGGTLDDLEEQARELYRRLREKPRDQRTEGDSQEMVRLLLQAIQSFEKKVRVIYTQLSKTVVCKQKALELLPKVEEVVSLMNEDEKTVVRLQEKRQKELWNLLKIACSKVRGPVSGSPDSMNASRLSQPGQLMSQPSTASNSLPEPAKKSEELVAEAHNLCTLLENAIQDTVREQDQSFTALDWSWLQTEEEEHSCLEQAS
# Sequence of AURKA (human) (O14965 whole entry, looked up): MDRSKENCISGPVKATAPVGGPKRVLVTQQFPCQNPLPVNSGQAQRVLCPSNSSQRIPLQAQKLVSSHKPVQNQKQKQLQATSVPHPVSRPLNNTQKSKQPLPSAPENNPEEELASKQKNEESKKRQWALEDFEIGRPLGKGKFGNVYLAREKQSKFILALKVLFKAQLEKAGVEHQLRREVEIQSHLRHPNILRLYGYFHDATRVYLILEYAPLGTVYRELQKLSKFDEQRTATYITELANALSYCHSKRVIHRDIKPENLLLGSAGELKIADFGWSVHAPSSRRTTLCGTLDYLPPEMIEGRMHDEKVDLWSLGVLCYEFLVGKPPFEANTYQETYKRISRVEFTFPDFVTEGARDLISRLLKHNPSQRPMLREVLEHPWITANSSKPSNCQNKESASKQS
smiles,measurement,setting,value
CCN1CCN(Cc2ccc(NC(=O)c3ccc(C)c(Oc4ccnc5[nH]ccc45)c3)cc2C(F)(F)F)CC1,residual activity,LCK (mouse); compound 0.1 µM,12.7%
same,residual activity,LCK (mouse); compound 1.0 µM,0.851%
same,residual activity,LCK (mouse); compound 10.0 µM,5.77%
same,residual activity,IKBKB (human); compound 0.1 µM,114%
same,residual activity,IKBKB (human); compound 1.0 µM,101%
same,residual activity,IKBKB (human); compound 10.0 µM,44.6%
same,residual activity,MARK3 (human); compound 0.1 µM,112%
same,residual activity,MARK3 (human); compound 1.0 µM,99.5%
same,residual activity,MARK3 (human); compound 10.0 µM,105%
same,residual activity,RIPK2 (human); compound 0.1 µM,103%
same,residual activity,RIPK2 (human); compound 1.0 µM,78.9%
same,residual activity,RIPK2 (human); compound 10.0 µM,13.5%
same,residual activity,EEF2K (human); compound 0.1 µM,110%
same,residual activity,EEF2K (human); compound 1.0 µM,102%
same,residual activity,EEF2K (human); compound 10.0 µM,100%
same,residual activity,AURKA (human); compound 0.1 µM,120%
same,residual activity,AURKA (human); compound 1.0 µM,121%
same,residual activity,AURKA (human); compound 10.0 µM,102%
same,residual activity,EPHB1 (human); compound 0.1 µM,111%
same,residual activity,EPHB1 (human); compound 1.0 µM,106%
same,residual activity,EPHB1 (human); compound 10.0 µM,66.9%
same,residual activity,DYRK2 (human); compound 0.1 µM,102%
same,residual activity,DYRK2 (human); compound 1.0 µM,101%
same,residual activity,DYRK2 (human); compound 10.0 µM,94.5%
same,residual activity,SRC (human); compound 0.1 µM,66.5%
same,residual activity,SRC (human); compound 1.0 µM,9.72%
same,residual activity,SRC (human); compound 10.0 µM,2.65%
same,residual activity,SRPK1 (human); compound 0.1 µM,102%
same,residual activity,SRPK1 (human); compound 1.0 µM,97.1%
same,residual activity,SRPK1 (human); compound 10.0 µM,73%
same,residual activity,TTK (human); compound 0.1 µM,91.2%
same,residual activity,TTK (human); compound 1.0 µM,98.1%
same,residual activity,TTK (human); compound 10.0 µM,66.1%
same,residual activity,ABL1 (human); compound 0.1 µM,51.4%
same,residual activity,ABL1 (human); compound 1.0 µM,3.77%
same,residual activity,ABL1 (human); compound 10.0 µM,0.874%
same,residual activity,CaMK1 (human); compound 0.1 µM,68.7%
same,residual activity,CaMK1 (human); compound 1.0 µM,17.2%
same,residual activity,CaMK1 (human); compound 10.0 µM,3.79%
same,residual activity,MARK2 (human); compound 0.1 µM,92.7%
same,residual activity,MARK2 (human); compound 1.0 µM,74.5%
